Test results: patent publication US8394792B2, “Heterocyclic derivatives” (C&C Research Laboratories, priority 2008, dated 2013)
≈ marks a conversion by molar mass, not a printed value. Counter-ions that a name gives are not always drawn. Like-named read-outs stand apart in the source and are kept apart here.

How the values were obtained:
[1] = target: T1, hURAT1 (Homo sapiens, UniProt Q96S37); assay: Test for inhibiting urate reuptake activity via hURAT1 (uric acid transport assay in hURAT1-overexpressed HEK293 cell line); assay type: cell-based; conditions: hURAT1-overexpressed HEK293 cells, [14C]-uric acid uptake, 100 μM uric acid; read-out: IC50 (μM) hURAT, level of uric acid reuptake inhibition
T1 construct: expressed in transfected cells; host or cells: HEK293 (human kidney cell line), transient transfection with Fugene6
T1 sequence (Q96S37 1-553): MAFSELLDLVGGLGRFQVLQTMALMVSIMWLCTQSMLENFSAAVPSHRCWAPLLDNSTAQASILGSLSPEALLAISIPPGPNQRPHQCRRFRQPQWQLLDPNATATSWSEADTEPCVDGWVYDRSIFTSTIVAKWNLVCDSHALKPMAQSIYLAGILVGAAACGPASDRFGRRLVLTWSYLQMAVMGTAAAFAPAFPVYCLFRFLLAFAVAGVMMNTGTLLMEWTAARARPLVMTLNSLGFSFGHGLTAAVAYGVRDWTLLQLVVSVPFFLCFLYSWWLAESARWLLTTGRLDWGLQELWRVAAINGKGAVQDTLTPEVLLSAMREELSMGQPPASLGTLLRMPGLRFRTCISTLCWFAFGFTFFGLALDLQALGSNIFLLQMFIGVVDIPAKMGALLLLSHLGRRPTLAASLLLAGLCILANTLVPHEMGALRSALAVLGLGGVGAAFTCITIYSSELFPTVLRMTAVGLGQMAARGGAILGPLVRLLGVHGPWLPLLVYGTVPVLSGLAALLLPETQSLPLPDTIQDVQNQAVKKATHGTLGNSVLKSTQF
Description: Test for Inhibiting Urate Reuptake Activity Via hURAT1
[hURAT1 Overexpression by Transient Transfection in Human Kidney Cell Line]
A human kidney cell line, HEK293 was incubated by using OptiMEM medium in 100 mm dish at (3*10^6 cells) for 24 hours. In order for the expression of hURAT1, a transfection mixture solution (Fugene6 18 μl:hURAT1 DNA 6 μg=3:1, in 600 μl OptiMEM medium/dish) was prepared and kept for 15 minutes at room temperature. To each dish, 600 μl of the mixture solution was injected and then incubated in 37[…] cell incubator for 24 hours. The hURAT1-overexpressed HEK293 cell line was trypsinized and cells were harvested. Cells were resuspended in medium and seeded at 6*10^5 cells/well and incubated for 24 hours in 24-well plate which was surface-coated with Poly-D-Lysine.
[Uric Acid Transport Assay in hURAT1-Overexpressed HEK293 Cell Line]
For each concentration, the stock sample solution was diluted in PBS (1 μl in 800 μl of PBS) as 1.25 fold concentrated working sample solution to obtain final concentrations of 0.01, 0.1, 1 and 10 μM. The hURAT1-overexpressed cell line was washed with 1 ml of PBS. After washing, PBS was discarded and the sample solution was diluted by 1.25 fold with PBS. Preincubation of cells with 200 μl/well of sample solution made above was conducted for 30 minutes in 37[…] cell incubator. After the incubation, each well was treated with 50 μl of PBS containing 500 μM [^14C]-uric acid (final 100 μM of uric acid/well). Cells were incubated for 2 minutes. The cells were washed twice with 1 ml of PBS.
To measure the uric acid uptake, each well was treated with 150 μl of M-per buffer (PIERCE) and kept in 37° C. cell incubator for 30 minutes to make cell lysates. 150 μl of cell lysates was transferred into test tube and 4 ml of scintillation cocktail was added. CPM value of [^14C]-uric acid absorbed into cells was detected using liquid scintillation counter. IC50 for the inhibition of uric acid uptake by each test sample was analyzed by computational numerical processing.

[2] = target: CYP2C9 (Homo sapiens, UniProt P11712); assay: biochemical
[3] = Test for solubility according to pH; assay type: physicochemical; conditions: 37° C. 2 hours; for solubility at 2 h: thermodynamic from solid
Description: 2.0 g of sodium chloride was dissolved in 7.0 mL of hydrochloric acid and water to make the total volume of 1000 mL. This solution was colorless and clear. Its pH was about 1.2.
To 250 mL of 0.2 mol/L potassium dihydrogen phosphate solution, 118 mL of 0.2 mol/L sodium hydroxide solution and water were added to make the total volume of 1000 mL. This solution was colorless and clear. Its pH was about 6.8.
For the compounds of present invention prepared in the examples, the test samples were prepared in each of the first and second solutions with 2 mg/mL concentration. This test sample solution was agitated for 10 seconds, sonicated for 1 minute and heated at 37° C. for 2 hours. The heated test sample solution was filtered to remove undissolved compounds therein. From filtered solution, 100 μl of the completely dissolved solution was sampled and 100 μl of acetonitrile was added thereto to make test sample solution. For each analysis of test sample solution, the solubility was measured by using liquid chromatography.

[4] = 37 °C, pH 1.2, simulated gastric fluid, first solution pH about 1.2, 2 mg/mL, read-out: Solubility (μg/mL) pH 1.2
[5] = 37 °C, pH 6.8, aqueous buffer, second solution pH about 6.8, 2 mg/mL, read-out: Solubility (μg/mL) pH 6.8
[6] = pH 1.2, simulated gastric fluid, first solution pH about 1.2, 2 mg/mL, read-out: Solubility (μg/mL) pH 1.2
[7] = pH 6.8, aqueous buffer, second solution pH about 6.8, 2 mg/mL, read-out: Solubility (μg/mL) pH 6.8

CYP2C9, sequence (P11712 whole entry): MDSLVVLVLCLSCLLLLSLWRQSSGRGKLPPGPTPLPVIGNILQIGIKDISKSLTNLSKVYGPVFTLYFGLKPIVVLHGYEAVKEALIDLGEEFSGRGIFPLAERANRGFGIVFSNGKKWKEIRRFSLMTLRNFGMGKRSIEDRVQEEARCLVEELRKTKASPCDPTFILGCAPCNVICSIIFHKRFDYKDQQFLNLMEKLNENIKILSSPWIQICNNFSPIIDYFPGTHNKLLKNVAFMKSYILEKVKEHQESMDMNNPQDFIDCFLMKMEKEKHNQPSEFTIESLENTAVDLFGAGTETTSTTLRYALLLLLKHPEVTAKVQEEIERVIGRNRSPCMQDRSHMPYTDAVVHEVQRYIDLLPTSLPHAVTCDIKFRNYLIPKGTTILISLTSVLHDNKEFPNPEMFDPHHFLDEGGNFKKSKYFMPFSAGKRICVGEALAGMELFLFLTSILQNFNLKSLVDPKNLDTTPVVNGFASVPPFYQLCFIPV

Compound	IC50 [1] [µM]	IC50 [2] [µM]	further results
COc1c(Br)cc(C(=O)N2CCOc3ccncc32)cc1Br [Compound 2, (3,5-dibromo-4-methoxy-phenyl)-(2,3-dihydro-pyrido[4,3-b][1,4]oxazin-4-yl)-methanone]	0.136	> 12	–
COc1c(Br)cc(C(=O)N2CCOc3cnccc32)cc1Br [Compound 5, (3,5-dibromo-4-methoxy-phenyl)-(2,3-dihydro-pyrido[3,4-b][1,4]oxazin-1-yl)-methanone]	0.175	–	–
O=C(c1cc(Br)c(O)c(Br)c1)N1CCOc2cnccc21 [Compound 6, (3,5-dibromo-4-hydroxy-phenyl)-(2,3-dihydro-pyrido[3,4-b][1,4]oxazin-1-yl)-methanone]	0.0565	3.05	–
O=C(c1cc(Br)c(O)c(Br)c1)N1CCOc2ncc(C3CC3)cc21 [Compound 9, (3,5-dibromo-4-hydroxy-phenyl)-(7-cyclopropyl-2,3-dihydro-pyrido[2,3-b][1,4]oxazin-1-yl)-methanone]	0.02	> 20	–
O=C(c1ccc(O)c(Cl)c1)N1CCOc2ccncc21 [Compound 10, (3-chloro-4-hydroxy-phenyl)-(2,3-dihydro-pyrido[4,3-b][1,4]oxazin-4-yl)-methanone bromic acid salt]	0.334	> 60	–
O=C(c1ccc(O)c(Br)c1)N1CCOc2ccncc21 [Compound 11, (3-bromo-4-hydroxy-phenyl)-(2,3-dihydro-pyrido[4,3-b][1,4]oxazin-4-yl)-methanone bromic acid salt]	0.175	> 60	–
O=C(c1ccc(O)c(Br)c1)N1CCOc2cnccc21 [Compound 16, (3-bromo-4-hydroxy-phenyl)-(2,3-dihydro-pyrido[3,4-b][1,4]oxazin-1-yl)-methanone bromic acid salt]	0.93	3.5	–
O=C(c1ccc(O)c(Cl)c1)N1CCOc2cnccc21 [Compound 18, (3-chloro-4-hydroxy-phenyl)-(2,3-dihydro-pyrido[3,4-b][1,4]oxazin-1-yl)-methanone bromic acid salt]	–	9.7	–
O=C(c1ccc(O)c(C(F)(F)F)c1)N1CCOc2cnccc21 [Compound 19, (2,3-dihydro-pyrido[3,4-b][1,4]oxazin-1-yl)-(4-hydroxy-3-trifluoromethyl-phenyl)-methanone]	0.269	6.8	–
O=C(c1cc(Br)c(O)c(Br)c1)N1CCOc2ncc(-c3ccccc3)cc21 [Compound 20, (3,5-dibromo-4-hydroxy-phenyl)-(7-phenyl-2,3-dihydro-pyrido[2,3-b][1,4]oxazin-1-yl)-methanone]	0.034	5.2	–
O=S(=O)(c1cc(Cl)c(O)c(Cl)c1)N1CCOc2ccncc21 [Compound 21, 2,6-dichloro-4-(2,3-dihydro-pyrido[4,3-b][1,4]oxazin-4-sulfonyl)-phenol]	0.954	1.11	–
O=C(c1cc(Cl)nc(Cl)c1)N1CCOc2ccncc21 [Compound 31, (2,6-dichloro-pyridin-4-yl)-(2,3-dihydro-pyrido[4,3-b][1,4]oxazin-4-yl)-methanone]	–	> 20	solubility at 2 h [3, 4]: 1850 µg/mL (≈ 5.95 mM); solubility at 2 h [3, 5]: 199 µg/mL (≈ 0.641 mM)
O=C(c1ccc(O)nc1)N1CCOc2ccncc21 [Compound 32, (2,3-dihydro-pyrido[4,3-b][1,4]oxazin-4-yl)-(6-hydroxy-pyridin-3-yl)-methanone]	–	> 20	solubility at 2 h [3, 4]: 1960 µg/mL (≈ 7.62 mM); solubility at 2 h [3, 5]: 1470 µg/mL (≈ 5.73 mM)
Cl.O=C(c1cc(Br)c(O)c(Br)c1)N1CCOc2ccncc21 [Compound 33, (3,5-dibromo-4-hydroxy-phenyl)-(2,3-dihydro-pyrido[4,3-b][1,4]oxazin-4-yl)-methanone hydrochloric acid salt]	–	–	solubility at 2 h [3, 6]: 1580 µg/mL; solubility at 2 h [3, 7]: 810 µg/mL
O=C(c1ccc(O)c(Cl)c1)N1CCOc2cnccc21 [Compound 34, (3-chloro-4-hydroxy-phenyl)-(2,3-dihydro-pyrido[3,4-b][1,4]oxazin-1-yl)-methanone]	–	19.6	–
O=S(=O)(c1ccc(O)cc1)N1CCOc2ccncc21 [Compound 35-1, 4-(2,3-dihydro-pyrido[4,3-b][1,4]oxazin-4-sulfonyl)-phenol]	–	> 20	–
O=C(c1ccc(O)c(Br)c1)N1CCOc2cnccc21 [Compound 40, (3-bromo-4-hydroxy-phenyl)-(2,3-dihydro-pyrido[3,4-b][1,4]oxazin-1-yl)-methanone]	–	15.1	solubility at 2 h [3, 4]: 1320 µg/mL (≈ 3.93 mM); solubility at 2 h [3, 5]: 473 µg/mL (≈ 1.41 mM)
COc1cc(C(=O)N2CCOc3ccncc32)on1 [Compound 43, (2,3-dihydro-pyrido[4,3-b][1,4]oxazin-4-yl)-(3-methoxy-isoxazol-5-yl)-methanone]	–	> 20	solubility at 2 h [3, 4]: 1260 µg/mL (≈ 4.82 mM); solubility at 2 h [3, 5]: 1010 µg/mL (≈ 3.86 mM)
O=C(c1cc(O)no1)N1CCOc2ccncc21 [Compound 44, (2,3-dihydro-pyrido[4,3-b][1,4]oxazin-4-yl)-(3-hydroxy-isoxazol-5-yl)-methanone]	–	> 20	solubility at 2 h [3, 4]: 1960 µg/mL (≈ 7.93 mM); solubility at 2 h [3, 5]: 2100 µg/mL (≈ 8.48 mM)
O=C(CN1CCOc2ccncc21)c1cc(Br)c(O)c(Br)c1 [Compound 54, 1-(3,5-dibromo-4-hydroxy-phenyl)-2-(2,3-dihydro-pyrido[4,3-b][1,4]oxazin-4-yl)-ethanone]	–	> 6	–
COc1c(Br)cc(C(=O)N2C(=O)COc3ccncc32)cc1Br [Compound 57, 4-(3,5-dibromo-4-methoxy-benzoyl)-4H-pyrido[4,3-b][1,4]oxazin-3-one]	–	> 20	–
O=C(c1cnc(O)nc1O)N1CCOc2ccncc21 [Compound 59, (2,3-dihydro-pyrido[4,3-b][1,4]oxazin-4-yl)-(2,4-dihydroxy-pyrimidin-5-yl)-methanone]	–	> 20	solubility at 2 h [3, 4]: 2240 µg/mL (≈ 8.18 mM); solubility at 2 h [3, 5]: 676 µg/mL (≈ 2.47 mM)
O=C(c1cc(O)nc(O)n1)N1CCOc2ccncc21 [Compound 60, (2,3-dihydro-pyrido[4,3-b][1,4]oxazin-4-yl)-(2,6-dihydroxy-pyrimidin-4-yl)-methanone]	–	> 20	solubility at 2 h [3, 4]: 2130 µg/mL (≈ 7.75 mM); solubility at 2 h [3, 5]: 600 µg/mL (≈ 2.19 mM)
CC(=O)c1ccc(-c2cnc3c(c2)N(C(=O)c2cc(Br)c(O)c(Br)c2)CCO3)cc1 [Compound 67, 1-{4-[1-(3,5-dibromo-4-hydroxy-benzoyl)-2,3-dihydro-1H-pyrido[2,3-b][1,4]oxazin-7-yl]-phenyl}-ethanone]	0.0078	–	–
O=C(c1cc(Br)c(O)c(Br)c1)N1CCOc2ccncc21 [Compound 71, (3,5-dibromo-4-hydroxy-phenyl)-(2,3-dihydro-pyrido[4,3-b][1,4]oxazin-4-yl)-methanone sulfuric acid salt]	–	> 20	solubility at 2 h [3, 4]: 2140 µg/mL; Solubility (μg/mL) pH 6.8 ([3]; second solution pH about 6.8, 2 mg/mL): 344.7 μg/mL
O=C(c1cc(Br)c([O-])c(Br)c1)N1CCOc2ccncc21.[K+] [Compound 73]	–	–	solubility at 2 h [3, 6]: 1150 µg/mL; solubility at 2 h [3, 7]: 565 µg/mL
O=C1CCCN1c1cnc2c(c1)N(C(=O)c1cc(Br)c(O)c(Br)c1)CCO2 [Compound 75, 1-[1-(3,5-dibromo-4-hydroxy-benzoyl)-2,3-dihydro-1H-pyrido[2,3-b][1,4]oxazin-7-yl]-pyrrolidin-2-one]	–	11.6	–
